Laboratory results: US11272709B2, “Amidine substituted benzoyl derivatives useful as herbicides” (Syngenta Participations AG, priority 2018, dated 2022)

Key:
Assay type in all cases: in vivo
Conditions in all cases: 500 g/h, evaluated after 13 days
[1] = tested on: Amaranthus retoflexus (AMARE); experiment: Pre-emergence herbicidal glasshouse test, Amaranthus retoflexus (AMARE)
Method: (§1) Seeds of a variety of test species are sown in standard soil in pots (Lolium perenne (LOLPE), Amaranthus retoflexus (AMARE), Abutilon theophrasti (ABUTH), Setaria faberi (SETFA), Echinochloa crus-galli (ECHCG), Ipomoea hederacea (IPOHE)). After cultivation for one day (pre-emergence) or after 8 days cultivation (post-emergence) under controlled conditions in a glasshouse (at 24/16° C., day/night; 14 hours light; 65% humidity), the plants are sprayed with an aqueous spray solution derived from the formulation of the technical active ingredient in acetone/water (50:50) solution containing 0.5% Tween 20 (polyoxyethelyene sorbitan monolaurate, CAS RN 9005-64-5). Compounds are applied at 500 g/h unless otherwise indicated. The test plants are then grown in a glasshouse under controlled conditions in a glasshouse (at 24/16° C., day/night; 14 hours light; 65% humidity) and watered twice daily. After 13 days for pre and post-emergence, the test is evaluated for the percentage damage caused to the plant. The biological activities are shown in the following table on a five point scale (5=80-100%; 4=60-79%; 3=40-59%; 2=20-39%; 1=0-19%).

[2] = tested on: Abutilon theophrasti (ABUTH); experiment: Pre-emergence herbicidal glasshouse test, Abutilon theophrasti (ABUTH)
Method: as §1

Setaria faberi (SETFA) [3] = experiment: Pre-emergence herbicidal glasshouse test, Setaria faberi (SETFA)
Method: as §1

[4] = tested on: Echinochloa crus-galli (ECHCG); experiment: Pre-emergence herbicidal glasshouse test, Echinochloa crus-galli (ECHCG)
Method: as §1

[5] = tested on: Ipomoea hederacea (IPOHE); experiment: Pre-emergence herbicidal glasshouse test, Ipomoea hederacea (IPOHE)
Method: as §1

[6] = tested on: Amaranthus retoflexus (AMARE); experiment: Post-emergence herbicidal glasshouse test, Amaranthus retoflexus (AMARE)
Method: as §1

[7] = tested on: Abutilon theophrasti (ABUTH); experiment: Post-emergence herbicidal glasshouse test, Abutilon theophrasti (ABUTH)
Method: as §1

Setaria faberi (SETFA) [8] = experiment: Post-emergence herbicidal glasshouse test, Setaria faberi (SETFA)
Method: as §1

[9] = tested on: Echinochloa crus-galli (ECHCG); experiment: Post-emergence herbicidal glasshouse test, Echinochloa crus-galli (ECHCG)
Method: as §1

[10] = tested on: Ipomoea hederacea (IPOHE); experiment: Post-emergence herbicidal glasshouse test, Ipomoea hederacea (IPOHE)
Method: as §1

| SMILES | PRE Application AMARE, percentage damage (five point scale) [1] | PRE Application ABUTH, percentage damage (five point scale) [2] | PRE Application SETFA, percentage damage (five point scale) (Setaria faberi (SETFA) [3]) | PRE Application ECHCG, percentage damage (five point scale) [4] | PRE Application IPOHE, percentage damage (five point scale) [5] | POST Application AMARE, percentage damage (five point scale) [6] | POST Application ABUTH, percentage damage (five point scale) [7] | POST Application SETFA, percentage damage (five point scale) (Setaria faberi (SETFA) [8]) | POST Application ECHCG, percentage damage (five point scale) [9] | POST Application IPOHE, percentage damage (five point scale) [10] |
| --- | --- | --- | --- | --- | --- | --- | --- | --- | --- | --- |
| Cc1nnc(NC(=O)c2ccc(C(F)(F)F)c(N=CN(C)C)c2C)o1 [Compound 2.017] | 5 (5=80-100%) | 5 (5=80-100%) | 4 (4=60-79%) | 5 (5=80-100%) | 5 (5=80-100%) | 5 (5=80-100%) | 4 (4=60-79%) | 5 (5=80-100%) | 5 (5=80-100%) | 4 (4=60-79%) |
| Cc1nnc(NC(=O)c2ccc(S(C)(=O)=O)c(N=CN(C)C)c2C)o1 [Compound 2.025] | 5 (5=80-100%) | 5 (5=80-100%) | 5 (5=80-100%) | 5 (5=80-100%) | 3 (3=40-59%) | 5 (5=80-100%) | 5 (5=80-100%) | 5 (5=80-100%) | 5 (5=80-100%) | 5 (5=80-100%) |
| CCN(C)C=Nc1c(S(C)(=O)=O)ccc(C(=O)Nc2nnc(C)o2)c1C [Compound 2.027] | 5 (5=80-100%) | 5 (5=80-100%) | 5 (5=80-100%) | 5 (5=80-100%) | 4 (4=60-79%) | 5 (5=80-100%) | 5 (5=80-100%) | 5 (5=80-100%) | 5 (5=80-100%) | 5 (5=80-100%) |
| CCN(C=Nc1c(S(C)(=O)=O)ccc(C(=O)Nc2nnc(C)o2)c1C)CC [Compound 2.031] | 5 (5=80-100%) | 4 (4=60-79%) | 5 (5=80-100%) | 5 (5=80-100%) | 4 (4=60-79%) | 5 (5=80-100%) | 5 (5=80-100%) | 5 (5=80-100%) | 5 (5=80-100%) | 4 (4=60-79%) |
| Cc1nnc(NC(=O)c2ccc(C(F)(F)F)c(/N=C/N(C)C)c2Cl)o1 [Compound 2.049, 2-chloro-3-[(E)-dimethylaminomethyleneamino]-N-(5-methyl-1,3,4-oxadiazol-2-yl)-4-(trifluoromethyl)benzamide] | 5 (5=80-100%) | 5 (5=80-100%) | 5 (5=80-100%) | 5 (5=80-100%) | 5 (5=80-100%) | 5 (5=80-100%) | 5 (5=80-100%) | 5 (5=80-100%) | 5 (5=80-100%) | 5 (5=80-100%) |
